Measurements reported in US10238738B2, “Methods of modulating immune system responses” (priority 2014, dated 2019).

Assays:
Type in all cases: cell-based, human
NF-κB = NF-κB luciferase reporter assay in 293T cells
Method: (§1) 293T were maintained in DMEM supplemented with 10% FBS, 1% glutamax, and 1% penicillin streptomycin. Jurkat 1G5 cells contain a stably-integrated LTR-luciferase reporter gene (Aguilar-Cordova et al., 1994), and were maintained in RPMI supplemented with 10% FBS and 1% glutamax. THP-1 cells were maintained in RPMI supplemented with 10% FBS and 1% glutamax and differentiated to macrophages with 50 ng/ml PMA for 48 hr, followed by a 48 hr rest period prior to stimulation. To measure LTR-driven luciferase, 1G5 cells were lysed and luminescence determined using the Luciferase Assay kit (Promega) according to manufacturer's instructions. Results are expressed as fold change compared to untreated. 293T cells were transfected in 96 well plates with 90 ng ELAM firefly luciferase reporter plasmid (Chow et al., 1999) and 10 ng pRL-TK Renilla plasmid using TransiT LTI (Mirus). 18 hours later cells were treated for 6 hours and luciferase activity determined using the Dual-Glo Luciferase Assay System (Promega). Results are expressed as fold increase relative to transfected, mock treated cells following normalization to Renilla luciferase. Digitonin permeabilization assays were done as described previously (Girardin et al., 2003) with the following modifications: 1G5 cells were stimulated with purified HBP supernatants, or 10 μg/ml flagellin (Invivogen) for 20 minutes at 4° C. in the absence or presence of 2 μg/ml digitonin (Sigma). […]
293T were maintained in DMEM supplemented with 10% FBS, 1% glutamax, and 1% penicillin streptomycin. […] To measure LTR-driven luciferase, 1G5 cells were lysed and luminescence determined using the Luciferase Assay kit (Promega) according to manufacturers instructions. Results are expressed as fold change compared to untreated. […] 18 hours later cells were treated for 6 hours and luciferase activity determined using the Dual-Glo Luciferase Assay System (Promega). Results are expressed as fold increase relative to transfected, mock treated cells following normalization to Renilla luciferase.

THP-1 macrophages = experiment: Infection of THP-1 macrophages with serum-opsonized E. coli, IL-6 production; settings: 10 μg/ml cytochalasin D for 30 min; FIG. 6a
Method: Neisseria strains were grown overnight on GC agar supplemented with IsovitaleX enrichment (BD Biosciences). E. coli and S. typhimurium were grown overnight on LB agar, S. pneumoniae was grown on Columbia blood agar containing 5% sheep blood, and H. influenzae, B. multivorans, L. monocytogenes, and S. aureus were grown on brain heart infusion (BHI) agar (BD Biosciences). Where culture supernatant was desired, overnight cultures were scraped into PBS, re-suspended in RPMI 1% Isovitalex at an OD600=0.2, grown for 6 hours and the spent medium filtered through a 0.22 μm filter. For heat-killed bacteria, overnight cultures were scraped into PBS and 1 OD600 unit was re-suspended in 100 μl PBS and heated to 65° C. for 1 hr, with the exception of B. multivorans which was heated to 85° C. Cell pellets were washed, re-suspended in 100 μl PBS, and 2 μl/well used as treatment. To generate lysates, cultures were treated as above and boiled for 15 minutes. […]
Relative expression was calculated using the 2^−ΔΔCT method following normalization of target gene abundance to GAPDH. Quantitative measurements of cytokines were performed using ELISA kits form R&D Systems (KC, IL-23, IFN-β) or BD Biosciences (IL-1β, IL-8, IL-6, IL-12p70, TNF-α). Nuclear extracts were prepared from Jurkat T cells and NF-κB subunit binding was determined using the TransAM® Transcription Factor ELISA (Active Motif). […]

NF-κB response to HBP = experiment: HBP internalization assay: NF-κB luciferase in 293T cells pre-treated with inhibitors; settings: 80 μM Dynasore or 10 μM cytochalasin D 1 hr prior to stimulation, FIG. 3b
Method: as §1, with “luciferase.” for “luciferase. Digitonin permeabilization assays were done as described previously (Girardin et al., 2003) with the following modifications: 1G5 cells were stimulated with purified HBP supernatants, or 10 μg/ml flagellin (Invivogen) for 20 minutes at 4° C. in the absence or presence of 2 μg/ml digitonin (Sigma).”

[1] = test system: HIV LTR-luciferase in Jurkat 1G5 cells; experiment: LTR-driven luciferase in Jurkat 1G5 cells with reversible digitonin permeabilization; settings: FIG. 3a
Method: as §1, with “luciferase.” for “luciferase. Digitonin permeabilization assays were done as described previously (Girardin et al., 2003) with the following modifications: 1G5 cells were stimulated with purified HBP supernatants, or 10 μg/ml flagellin (Invivogen) for 20 minutes at 4° C. in the absence or presence of 2 μg/ml digitonin (Sigma).”

In the case of C[C@H](N)C(=O)N[C@H](CCC(=O)N[C@@H](CCC[C@@H](N)C(=O)O)C(=O)O)C(=O)O [m-TriDAP, reference compound], the “NF-κB response of 293T cells to known Gram-negative PAMPs” value (NF-κB) is reported as “unresponsive”.
C=C1[C@@H](C)[C@H]2[C@H](Cc3ccccc3)NC(=O)[C@]23[C@H](OC(C)=O)/C=C/[C@@](C)(O)C(=O)[C@@H](C)C/C=C/[C@H]3[C@@H]1O [cytochalasin D] was tested, and the “Effect of pre-treatment on the higher IL-6 production induced by HBP-synthesizing E. coli” value (THP-1 macrophages) was “abrogated the effect” and the “Effect of inhibitor on NF-κB response to HBP” value (NF-κB response to HBP) was “not”.
flagellin was tested, and the “Luciferase activity after delivery into the cytosol” value [1] was “remained constant”.
For O=C(N/N=C/c1ccc(O)c(O)c1)c1cc2ccccc2cc1O [Dynasore], the “Effect of inhibitor on NF-κB response to HBP” value (NF-κB response to HBP) was “attenuated the NF-κB response to HBP”.
